Reference: patent publication US12180207B2 (ARRAY BIOPHARMA INC., priority 2018, dated 2024)
pIC50: −log10 of the molar value.

Legend:
[1] = target: phosphorylated FGFR3 (SEQ ID NO: 5, amino acids 449 to 759) (Homo sapiens (Human), UniProt P22607); assay: FGFR enzyme binding assay (HTRF tracer displacement), FGFR3; details: 5 nM phosphorylated FGFR3, average of multiple determinations if made
Summary of the method: (§1)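 Kinase and tracer were incubated with compound for 60 minutes at 22° C. Tracer displacement was then measured by HTRF, and results were expressed as POC with 1 μM control inhibitor defining full displacement.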

[2] = target: dephosphorylated FGFR1 (SEQ ID NO: 1, amino acids 458 to 765) (Homo sapiens (Human), UniProt P11362); assay: FGFR enzyme binding assay (HTRF tracer displacement), FGFR1; details: 5 nM dephosphorylated FGFR1, average of multiple determinations if made
Summary of the method: as §1

[3] = target: recombinant human FGFR3 (amino acids R397-T806) (Homo sapiens (Human), UniProt P22607); assay: FGFR3 enzyme activity assay (LanthaScreen TR-FRET); format: biochemical; details: 25 μM ATP, 10 min incubation at 22° C., average of multiple determinations if made, read-out: FGFR3 Enz FRET IC50
Summary of the method: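 GST-HIS6-tagged human FGFR3 (R397-T806) was reacted with 100 nM Alexa Fluor 647-Poly-GT substrate and 25 μM ATP plus compound in HEPES/MgCl2/Triton buffer, pH 7.5, 2% DMSO, for 10 min at 22 °C.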

[4] = target: FGFR1 (SEQ ID NO: 1, amino acids 458-765) (Homo sapiens (Human), UniProt P11362); assay: LC/MS FGFR1 kobs assay (covalent protein modification); format: binding; details: 500 nM FGFR1, 3 μM compound
Summary of the method: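 Covalent labeling of FGFR1 kinase domain (aa 458-765) tracked over time by intact-protein LC/MS after formic acid quench. kobs derived by fitting DMSO-normalized percent unmodified FGFR1 to an exponential decay model.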

[5] = target: recombinant human FGFR1 catalytic domain (amino acids 308-731) (Homo sapiens (Human), UniProt P11362); assay: FGFR1 enzyme activity assay (LanthaScreen TR-FRET); format: biochemical; details: 20 min incubation at 22° C., average of multiple determinations if made, read-out: FGFR1 Enz FRET IC50
Summary of the method: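 His-tagged FGFR1 kinase domain with 100 nM Alexa Fluor 647-poly-GT peptide and ATP in pH 7.5 HEPES/MgCl2 buffer with 2% DMSO, 20 min at 22 °C. Quenched with EDTA plus 2 nM Eu-PY20 antibody and read after 60 min. IC50 comes from a 4-parameter fit of percent of control.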

dephosphorylated FGFR1 (SEQ ID NO: 1, amino acids 458 to 765), sequence (P11362 458-765): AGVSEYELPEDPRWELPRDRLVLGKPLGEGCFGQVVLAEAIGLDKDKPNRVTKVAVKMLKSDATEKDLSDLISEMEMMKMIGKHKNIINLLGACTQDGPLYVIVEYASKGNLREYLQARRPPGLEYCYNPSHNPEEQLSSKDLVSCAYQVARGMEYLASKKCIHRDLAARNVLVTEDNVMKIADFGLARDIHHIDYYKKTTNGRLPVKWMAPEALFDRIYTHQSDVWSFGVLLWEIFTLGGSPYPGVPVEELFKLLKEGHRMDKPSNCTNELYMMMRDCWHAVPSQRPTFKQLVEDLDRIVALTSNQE
FGFR1 (SEQ ID NO: 1, amino acids 458-765), sequence (P11362 458-765): as above
phosphorylated FGFR3 (SEQ ID NO: 5, amino acids 449 to 759), sequence (P22607 449-759): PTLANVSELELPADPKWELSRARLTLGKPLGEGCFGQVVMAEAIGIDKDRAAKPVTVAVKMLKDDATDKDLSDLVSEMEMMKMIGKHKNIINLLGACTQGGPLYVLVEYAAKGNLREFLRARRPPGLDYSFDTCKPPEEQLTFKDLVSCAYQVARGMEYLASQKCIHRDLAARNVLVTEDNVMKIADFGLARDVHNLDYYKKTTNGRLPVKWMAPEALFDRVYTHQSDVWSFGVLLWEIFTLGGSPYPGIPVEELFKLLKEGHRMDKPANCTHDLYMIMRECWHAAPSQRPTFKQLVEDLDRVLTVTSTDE
recombinant human FGFR3 (amino acids R397-T806), sequence (P22607 397-806): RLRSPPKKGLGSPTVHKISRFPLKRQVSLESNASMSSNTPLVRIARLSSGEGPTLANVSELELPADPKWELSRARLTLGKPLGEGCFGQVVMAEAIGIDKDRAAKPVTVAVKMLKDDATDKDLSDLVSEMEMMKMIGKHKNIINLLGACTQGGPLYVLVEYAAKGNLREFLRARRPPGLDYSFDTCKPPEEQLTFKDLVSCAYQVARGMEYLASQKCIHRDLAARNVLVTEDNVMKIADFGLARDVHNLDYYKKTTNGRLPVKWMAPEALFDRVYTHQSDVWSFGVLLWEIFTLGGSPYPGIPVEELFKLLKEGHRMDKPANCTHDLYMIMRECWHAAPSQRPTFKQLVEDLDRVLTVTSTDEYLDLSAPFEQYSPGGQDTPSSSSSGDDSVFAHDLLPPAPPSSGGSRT
recombinant human FGFR1 catalytic domain (amino acids 308-731), sequence (P11362 other isoform, or with tags, fused parts or gaps): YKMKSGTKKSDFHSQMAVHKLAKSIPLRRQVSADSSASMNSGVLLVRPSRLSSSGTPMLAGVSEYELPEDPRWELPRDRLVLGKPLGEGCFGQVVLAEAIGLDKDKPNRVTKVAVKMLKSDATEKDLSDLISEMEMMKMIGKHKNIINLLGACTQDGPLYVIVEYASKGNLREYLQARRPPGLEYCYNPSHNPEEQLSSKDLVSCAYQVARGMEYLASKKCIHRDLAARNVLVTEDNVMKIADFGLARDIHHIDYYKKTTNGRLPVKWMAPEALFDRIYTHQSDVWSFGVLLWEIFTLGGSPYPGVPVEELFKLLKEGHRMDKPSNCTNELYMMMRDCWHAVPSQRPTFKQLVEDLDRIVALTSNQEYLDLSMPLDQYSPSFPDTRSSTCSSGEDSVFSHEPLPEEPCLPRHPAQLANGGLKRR

SMILES	pIC50 [1]	pIC50 [2]	pIC50 [3]	FGFR1 Enz kobs [4]	pIC50 [5]
C=CC(=O)N1C2CC1CN(C(=O)N1CCC(n3cc(-c4cc(OC)c5c(C#N)cnn5c4)cn3)CC1)C2 [Example 1, 6-(1-(1-(6-acryloyl-3,6-diazabicyclo[3.1.1]heptane-3-carbonyl)piperidin-4-yl)-1H-pyrazol-4-yl)-4-methoxypyrazolo[1,5-a]pyridine-3-carbonitrile]	8.40	7.30	8.30	0.00122 min⁻¹	8.30
C=CC(=O)N1C2COCC1CN(C(=O)N1CCC(n3cc(-c4cc(OC)c5c(C#N)cnn5c4)cn3)CC1)C2 [Example 3, 6-(1-(1-(9-acryloyl-3-oxa-7,9-diazabicyclo[3.3.1]nonane-7-carbonyl)piperidin-4-yl)-1H-pyrazol-4-yl)-4-methoxypyrazolo[1,5-a]pyridine-3-carbonitrile]	8.52	7.36	8.70	0.00172 min⁻¹	8.10
C=CC(=O)N1CCC(C#N)(C(=O)N2CCC(n3cc(-c4cc(OC)c5c(C#N)cnn5c4)cn3)CC2)CC1 [Example 14, 6-(1-(1-(1-acryloyl-4-cyanopiperidine-4-carbonyl)piperidin-4-yl)-1H-pyrazol-4-yl)-4-methoxypyrazolo[1,5-a]pyridine-3-carbonitrile]	8.15	7.08	8.52	0.00069 min⁻¹	8.10
C=CC(=O)N1CCC(C(=O)N2CCC(n3cc(-c4cc(OC)c5c(C#N)cnn5c4)cn3)CC2)C(F)(F)C1 (centres unmarked) [Example 15, 6-(1-(1-(1-acryloyl-3,3-difluoropiperidine-4-carbonyl)piperidin-4-yl)-1H-pyrazol-4-yl)-4-methoxypyrazolo[1,5-a]pyridine-3-carbonitrile]	8.70	7.49	8.70	0.00168 min⁻¹	8.15
C=CC(=O)N1CCC(C#N)(C(=O)N2CCC(n3cc(-c4cc(OC)c5c(C#N)cnn5c4)cn3)CC2)C1 (centres unmarked) [Example 31, 6-(1-(1-(1-acryloyl-3-cyanopyrrolidine-3-carbonyl)piperidin-4-yl)-1H-pyrazol-4-yl)-4-methoxypyrazolo[1,5-a]pyridine-3-carbonitrile]	8.70	7.59	8.70	0.00146 min⁻¹	8.10
C=CC(=O)N1CC(C(=O)N2CCC(n3cc(-c4cc(OC)c5c(C#N)cnn5c4)cn3)CC2)C1 [Example 36, 6-(1-(1-(1-acryloylazetidine-3-carbonyl)piperidin-4-yl)-1H-pyrazol-4-yl)-4-methoxypyrazolo[1,5-a]pyridine-3-carbonitrile]	8.40	7.23	8.40	0.00127 min⁻¹	7.96
C=CC(=O)N1CC(F)(C(=O)N2CCC(n3cc(-c4cc(OC)c5c(C#N)cnn5c4)cn3)CC2)C1 [Example 37, 6-(1-(1-(1-acryloyl-3-fluoroazetidine-3-carbonyl)piperidin-4-yl)-1H-pyrazol-4-yl)-4-methoxypyrazolo[1,5-a]pyridine-3-carbonitrile]	8.52	6.54	8.40	0.00447 min⁻¹	7.80
C=CS(=O)(=O)Nc1cccc(C(=O)N2CCC(n3cc(-c4cc(OC)c5c(C#N)cnn5c4)cn3)CC2)c1 [Example 188, N-(3-(4-(4-(3-cyano-4-methoxypyrazolo[1,5-a]pyridin-6-yl)-1H-pyrazol-1-yl)piperidine-1-carbonyl)phenyl)eth-enesulfonamide]	9.00	7.85	8.52	–	7.96

Continued by rising pIC50 [3], values first:

pIC50 [1]	pIC50 [2]	pIC50 [3]	FGFR1 Enz kobs [4]	pIC50 [5]	SMILES
7.16	6.51	7.51	0.0025 min⁻¹	7.20	C=CC(=O)Nc1cccc(C(=O)N2CCC[C@@H](n3cc(-c4cc(OC)c5c(C#N)cnn5c4)cn3)C2)c1 [Example 24, (R)-N-(3-(3-(4-(3-cyano-4-methoxypyrazolo[1,5-a]pyridin-6-yl)-1H-pyrazol-1-yl)piperidine-1-carbonyl)phenyl)acrylamide]
7.27	6.37	7.80	0.00247 min⁻¹	7.44	C=CC(=O)Nc1ccc(C(=O)N2CCC[C@@H](n3cc(-c4cc(OC)c5c(C#N)cnn5c4)cn3)C2)cc1 [Example 23, (R)-N-(4-(3-(4-(3-cyano-4-methoxypyrazolo[1,5-a]pyridin-6-yl)-1H-pyrazol-1-yl)piperidine-1-carbonyl)phenyl)acrylamide]
7.28	6.46	7.92	0.00103 min⁻¹	7.28	C=CC(=O)Nc1ccccc1C(=O)N1CCC[C@@H](n2cc(-c3cc(OC)c4c(C#N)cnn4c3)cn2)C1 [Example 25, (R)-N-(2-(3-(4-(3-cyano-4-methoxypyrazolo[1,5-a]pyridin-6-yl)-1H-pyrazol-1-yl)piperidine-1-carbonyl)phenyl)acrylamide]
7.37	6.60	7.96	0.00075 min⁻¹	7.62	C=CC(=O)N1CC[C@@H](C(=O)N2CCC(n3cc(-c4cc(OC)c5c(C#N)cnn5c4)cn3)CC2)C1 [Example 29, (R)-6-(1-(1-(1-acryloylpyrrolidine-3-carbonyl)piperidin-4-yl)-1H-pyrazol-4-yl)-4-methoxypyrazolo[1,5-a]pyridine-3-carbonitrile]
7.77	6.98	8.05	0.00075 min⁻¹	7.74	C=CC(=O)N1CC[C@H](C(=O)N2CCC(n3cc(-c4cc(OC)c5c(C#N)cnn5c4)cn3)CC2)C1 [Example 28, (S)-6-(1-(1-(1-acryloylpyrrolidine-3-carbonyl)piperidin-4-yl)-1H-pyrazol-4-yl)-4-methoxypyrazolo[1,5-a]pyridine-3-carbonitrile]
–	–	8.10	0.00324 min⁻¹	7.96	C=CC(=O)Nc1ccc(C(=O)N2CCC(n3cc(-c4cc(OC)c5c(C#N)cnn5c4)cn3)CC2)cc1 [Example 177, N-(4-(4-(4-(3-cyano-4-methoxypyrazolo[1,5-a]pyridin-6-yl)-1H-pyrazol-1-yl)piperidine-1-carbonyl)phenyl)acrylamide]
8.10	6.95	8.40	0.00187 min⁻¹	7.68	C=CC(=O)Nc1cccc(C(=O)N2CCC(n3cc(-c4cc(OC)c5c(C#N)cnn5c4)cn3)CC2)c1 [Example 22, N-(3-(4-(4-(3-cyano-4-methoxypyrazolo[1,5-a]pyridin-6-yl)-1H-pyrazol-1-yl)piperidine-1-carbonyl)phenyl)acrylamide]
8.30	7.24	8.52	0.00085 min⁻¹	8.00	C=CC(=O)N1CC2(CCC(C(=O)N3CCC(n4cc(-c5cc(OC)c6c(C#N)cnn6c5)cn4)CC3)CC2)C1 [Example 21, 6-(1-(1-(2-acryloyl-2-azaspiro[3.5]nonane-7-carbonyl)piperidin-4-yl)-1H-pyrazol-4-yl)-4-methoxypyrazolo[1,5-a]pyridine-3-carbonitrile]
8.70	7.48	8.52	0.00134 min⁻¹	8.00	C=CC(=O)N1CC(C)(C(=O)N2CCC(n3cc(-c4cc(OC)c5c(C#N)cnn5c4)cn3)CC2)C1 [Example 38, 6-(1-(1-(1-acryloyl-3-methylazetidine-3-carbonyl)piperidin-4-yl)-1H-pyrazol-4-yl)-4-methoxypyrazolo[1,5-a]pyridine-3-carbonitrile]
8.70	7.59	8.52	0.01019 min⁻¹	7.96	C=CC(=O)N1CC(C#N)(C(=O)N2CCC(n3cc(-c4cc(OC)c5c(C#N)cnn5c4)cn3)CC2)C1 [Example 39, 6-(1-(1-(1-acryloyl-3-cyanoazetidine-3-carbonyl)piperidin-4-yl)-1H-pyrazol-4-yl)-4-methoxypyrazolo[1,5-a]pyridine-3-carbonitrile]
8.30	7.29	8.70	0.00104 min⁻¹	8.05	C=CC(=O)N1CCC(F)(C(=O)N2CCC(n3cc(-c4cc(OC)c5c(C#N)cnn5c4)cn3)CC2)C1 (centres unmarked) [Example 30, 6-(1-(1-(1-acryloyl-3-fluoropyrrolidine-3-carbonyl)piperidin-4-yl)-1H-pyrazol-4-yl)-4-methoxypyrazolo[1,5-a]pyridine-3-carbonitrile]
